Test results from PubChem BioAssay (NCI).
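Method: 48-hour compound exposure of cells in 96-well plates, five concentrations, linear interpolation of endpoints. GI50 is the concentration that inhibits growth by half. TGI: total growth inhibition.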

How the values were obtained:
Assay in all cases: NCI tumour cell line growth inhibition, 48 h
786-0 renal = system: 786-0 renal
A498 renal = system: A498 renal
A549 NSCLC = system: A549 NSCLC
ACHN renal = system: ACHN renal
CAKI-1 renal = system: CAKI-1 renal
CCRF-CEM leukemia = system: CCRF-CEM leukemia
COLO 205 colon = system: COLO 205 colon
DLD-1 colon = system: DLD-1 colon
DMS 273 small cell lung = system: DMS 273 small cell lung
EKVX NSCLC = system: EKVX NSCLC
HCC-2998 colon = system: HCC-2998 colon
HCT-116 colon = system: HCT-116 colon
HCT-15 colon = system: HCT-15 colon
HL-60(TB) leukemia = system: HL-60(TB) leukemia
HOP-18 NSCLC = system: HOP-18 NSCLC
HOP-62 NSCLC = system: HOP-62 NSCLC
HT29 colon = system: HT29 colon
IGROV1 ovarian = system: IGROV1 ovarian
K-562 leukemia = system: K-562 leukemia
KM12 colon = system: KM12 colon
KM20L2 colon = system: KM20L2 colon
LOX IMVI melanoma = system: LOX IMVI melanoma
LXFL 529 NSCLC = system: LXFL 529 NSCLC
M14 melanoma = system: M14 melanoma
M19-MEL melanoma = system: M19-MEL melanoma
MALME-3M melanoma = system: MALME-3M melanoma
MOLT-4 leukemia = system: MOLT-4 leukemia

Q: `NC1CCCCC1N.O=C([O-])c1cc(S(=O)(=O)Nc2cc(S(=O)(=O)[O-])cc3cc(S(=O)(=O)[O-])cc(O)c23)ccc1[O-].[Pt+4]` was tested. Which GI50 (786-0 renal) did it give?
A: Its GI50 is over 100 µM.

Q: And the TGI (786-0 renal)?
A: The TGI was over 100 µM.

Q: And the GI50 (A498 renal)?
A: Its GI50 is over 100 µM.

Q: What about the TGI (A498 renal) of the same molecule?
A: Its TGI is over 100 µM.

Q: What about the GI50 (A549 NSCLC) of the same molecule?
A: The GI50 was 61.6 µM.

Q: And the TGI (A549 NSCLC)?
A: The TGI was over 100 µM.

Q: And the GI50 (ACHN renal)?
A: The GI50 was over 100 µM.

Q: What about the TGI (ACHN renal) of the same molecule?
A: The TGI was over 100 µM.

Q: What about the GI50 (CAKI-1 renal) of the same molecule?
A: The GI50 was over 100 µM.

Q: What about the TGI (CAKI-1 renal) of the same molecule?
A: Its TGI is over 100 µM.

Q: What about the GI50 (CCRF-CEM leukemia) of the same molecule?
A: The GI50 was over 100 µM.

Q: And the TGI (CCRF-CEM leukemia)?
A: The TGI was over 100 µM.

Q: What about the GI50 (COLO 205 colon) of the same molecule?
A: Its GI50 is over 100 µM.

Q: What about the TGI (COLO 205 colon) of the same molecule?
A: The TGI was over 100 µM.

Q: And the GI50 (DLD-1 colon)?
A: Its GI50 is over 100 µM.

Q: And the TGI (DLD-1 colon)?
A: Its TGI is over 100 µM.

Q: What about the GI50 (DMS 273 small cell lung) of the same molecule?
A: Its GI50 is over 100 µM.

Q: What about the TGI (DMS 273 small cell lung) of the same molecule?
A: Its TGI is over 100 µM.

Q: What about the GI50 (EKVX NSCLC) of the same molecule?
A: Its GI50 is over 100 µM.

Q: And the TGI (EKVX NSCLC)?
A: Its TGI is over 100 µM.

Q: What about the GI50 (HCC-2998 colon) of the same molecule?
A: The GI50 was over 100 µM.

Q: What about the TGI (HCC-2998 colon) of the same molecule?
A: Its TGI is over 100 µM.

Q: And the GI50 (HCT-116 colon)?
A: Its GI50 is over 100 µM.

Q: What about the TGI (HCT-116 colon) of the same molecule?
A: Its TGI is over 100 µM.

Q: What about the GI50 (HCT-15 colon) of the same molecule?
A: Its GI50 is over 100 µM.

Q: What about the TGI (HCT-15 colon) of the same molecule?
A: The TGI was over 100 µM.

Q: And the GI50 (HL-60(TB) leukemia)?
A: Its GI50 is 89.8 µM.

Q: And the TGI (HL-60(TB) leukemia)?
A: The TGI was over 100 µM.

Q: What about the GI50 (HOP-18 NSCLC) of the same molecule?
A: The GI50 was over 100 µM.

Q: And the TGI (HOP-18 NSCLC)?
A: Its TGI is over 100 µM.

Q: What about the GI50 (HOP-62 NSCLC) of the same molecule?
A: The GI50 was over 100 µM.

Q: And the TGI (HOP-62 NSCLC)?
A: Its TGI is over 100 µM.

Q: And the GI50 (HT29 colon)?
A: The GI50 was over 100 µM.

Q: What about the TGI (HT29 colon) of the same molecule?
A: Its TGI is over 100 µM.

Q: What about the GI50 (IGROV1 ovarian) of the same molecule?
A: The GI50 was over 100 µM.

Q: What about the TGI (IGROV1 ovarian) of the same molecule?
A: Its TGI is over 100 µM.

Q: What about the GI50 (K-562 leukemia) of the same molecule?
A: The GI50 was over 100 µM.

Q: What about the TGI (K-562 leukemia) of the same molecule?
A: Its TGI is over 100 µM.

Q: And the GI50 (KM12 colon)?
A: Its GI50 is over 100 µM.

Q: And the TGI (KM12 colon)?
A: Its TGI is over 100 µM.

Q: And the GI50 (KM20L2 colon)?
A: The GI50 was over 100 µM.

Q: And the TGI (KM20L2 colon)?
A: Its TGI is over 100 µM.

Q: What about the GI50 (LOX IMVI melanoma) of the same molecule?
A: The GI50 was over 100 µM.

Q: What about the TGI (LOX IMVI melanoma) of the same molecule?
A: The TGI was over 100 µM.

Q: And the GI50 (LXFL 529 NSCLC)?
A: The GI50 was over 100 µM.

Q: What about the TGI (LXFL 529 NSCLC) of the same molecule?
A: Its TGI is over 100 µM.

Q: What about the GI50 (M14 melanoma) of the same molecule?
A: Its GI50 is over 100 µM.

Q: And the TGI (M14 melanoma)?
A: The TGI was over 100 µM.

Q: What about the GI50 (M19-MEL melanoma) of the same molecule?
A: Its GI50 is over 100 µM.

Q: And the TGI (M19-MEL melanoma)?
A: The TGI was over 100 µM.

Q: What about the GI50 (MALME-3M melanoma) of the same molecule?
A: The GI50 was 63.5 µM.

Q: What about the TGI (MALME-3M melanoma) of the same molecule?
A: The TGI was over 100 µM.

Q: And the GI50 (MOLT-4 leukemia)?
A: Its GI50 is over 100 µM.

Q: What about the TGI (MOLT-4 leukemia) of the same molecule?
A: Its TGI is over 100 µM.
